Experimental data as given in US10953037B2, “Chondroitin sulfate derivative and agent for treating bladder diseases” (priority 2015, dated 2021).
Like-named read-outs stand apart in the source and are kept apart here.

Experiments:
[1] = tested on: hydrochloric acid-induced micturition model rats; settings: […] (w/v %), 0.2 mL single intravesical administration two days after HCl, cystometry seven days after HCl, vs. control (saline); for Intercontraction interval: FIG. 2
Experimental: Chondroitin sulfate derivatives prepared in compliance with the methods of Examples 3, 4 and 5 were dissolved in phosphate-buffered saline to prepare the test substances indicated below.
(§1) Two days after continuous instillation of hydrochloric acid, 0.2 mL of each test substance were administered transurethrally using a catheter (PE50) and retained in the bladder for 30 minutes under anesthesia.
Intercontraction interval and single voided volume were measured after changes in intravesical pressure had stabilized.

[2] = tested on: hydrochloric acid-induced micturition model rats; assay: Test Example B3: urinary function, rat hydrochloric acid-induced micturition model (comparison of conjugates and mixture); type: in vivo; settings: 3% (w/v %) conjugate or mixture of 3% CS+[…] BTM, 0.2 mL single intravesical administration, cystometry seven days after HCl, vs. control
Experimental: A chondroitin sulfate derivative prepared in compliance with the method of Example 2 was dissolved in phosphate-buffered saline to prepare the test substances indicated below.
as §1

[3] = tested on: hydrochloric acid-induced micturition model rats; assay: Test Example B1: urinary function, rat hydrochloric acid-induced micturition model (steroid comparison); settings: […] (w/v %), 0.2 mL single intravesical administration two days after HCl, cystometry seven days after HCl, vs. control (saline); for Intercontraction interval: FIG. 1

Row | Substance | Single voided volume [1] | Intercontraction interval [1] | Single voided volume [2] | Intercontraction interval ([2]; FIG. 4) | Single voided volume [3] | Intercontraction interval [3]
1 | CS introduced with 21-Glycyl-Triamcinolone Acetonide [CS-Gly-TA] | significant increase in single voided volume | significantly increased intercontraction interval |  |  |  | 
2 | CS introduced with 21-Isoleucyl-Triamcinolone Acetonide [CS-Ile-TA] | significant increase in single voided volume | significantly increased intercontraction interval |  |  |  | 
3 | CS introduced with 21-β-Alanyl-Betamethasone [CS-βAla-BTM] |  |  | significant increase in single voided volume | significantly increased intercontraction interval | significant increase in single voided volume | significantly increased intercontraction interval
4 | CS introduced with 21-β-Alanyl-Prednisolone [CS-βAla-PRED] |  |  |  |  | significant increase in single voided volume | significantly increased intercontraction interval
5 | CS introduced with 21-β-Alanyl-Triamcinolone Acetonide [CS-βAla-TA] | significant increase in single voided volume | significantly increased intercontraction interval |  |  | significant increase in single voided volume | significantly increased intercontraction interval
